In patent publication US20080207614A1, “QUINAZOLINE DERIVATIVES FOR THE TREATMENT AND PREVENTION OF DIABETES AND OBESITY” (SK CHEMICALS CO., LTD., priority 2004, published 2008):

Legend:
AMPK = test: Measurement of AMPK activity by Western blot in C2C12 cells; format: cell-based; set-up: key to AMPK activity (degree of phosphorylation of serine-79 and threonine-172): fold increase in threonine-172 phosphorylation; settings: 10 μM for 50 minutes; for AMPK activity (degree of phosphorylation of serine-79 and threonine-172): no superscript: Western blot of serine-79 and threonine-172 phosphorylation
In short: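 Differentiated C2C12 cells were exposed to test material at 10 μM for 50 minutes, then lysed. AMPK activity was taken from Western blots of Thr-172 phosphorylation and acetyl CoA carboxylase Ser-79 phosphorylation, with ERK as loading reference. Thr-172 rise was graded strong (≥3-fold), mild (1-3-fold) or weak (<1-fold).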

C2C12 muscle cells = test: Analysis of glucose absorption (2-deoxyglucose) in differentiated C2C12 muscle cells; format: cell-based; settings: test materials 10 μM, times relative to control group
In short: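 Differentiated C2C12 myotubes (6 days in 1% serum) held 3 h in KRB with 5 mM glucose, then given test material at 10 μM. After 30 min, 0.2 μCi 2-deoxyglucose added for 20 min; uptake measured by radioactive counting of NaOH lysates.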

| SMILES | AMPK activity (degree of phosphorylation of serine-79 and threonine-172) (AMPK) | AMPK activity (class: degree of phosphorylation of threonine-172) (AMPK; strong/mild/weak) | Glucose absorption (C2C12 muscle cells) |
| --- | --- | --- | --- |
| Clc1cccc(CCNc2nc(-c3ccccc3)nc3ccccc23)c1 [Compound 126, [2-(3-Chlorophenyl)-ethyl]-(2-phenylquinazolino-4-yl)-amine] | 2.0 | strong (“strong” means that the degree of phosphorylation of threonine-172 increased by 3 times or more) | 2.1 |
| COc1cc(CNc2nc(C(C)C)nc3ccccc23)cc(OC)c1 [Compound 323, (3,5-Dimethoxybenzyl)-(2-isopropylquinazolino-4-yl)-amine] | 1.2 | – | 1.1 |
| CCCc1nc(NCc2ccc(OC)c(OC)c2)c2ccccc2n1 [Compound 399, (3,4-Dimethoxybenzyl)-(2-propylquinazolino-4-yl)-amine] | 4.9 | – | 1.2 |
| COc1cc(CNc2nc(C(C)c3ccccc3)nc3ccccc23)cc(OC)c1OC (stereo not drawn) [Compound 378, [2-(1-Phenylethyl)-quinazolino-4-yl]-(3,4,5-trimethoxybenzyl)-amine] | 4.7 | – | 0.9 |
